Experimental data: patent publication US6399642B2, “Benzimidazole topoisomerase poisons” (Rutgers, The State University of New Jersey, priority 1998, dated 2002)

Target: T1, human topoisomerase I (Homo sapiens, UniProt P11387)
T1 construct: unnamed fusion partner (recombinant fusion protein); made in house
T1 sequence (P11387 1-765): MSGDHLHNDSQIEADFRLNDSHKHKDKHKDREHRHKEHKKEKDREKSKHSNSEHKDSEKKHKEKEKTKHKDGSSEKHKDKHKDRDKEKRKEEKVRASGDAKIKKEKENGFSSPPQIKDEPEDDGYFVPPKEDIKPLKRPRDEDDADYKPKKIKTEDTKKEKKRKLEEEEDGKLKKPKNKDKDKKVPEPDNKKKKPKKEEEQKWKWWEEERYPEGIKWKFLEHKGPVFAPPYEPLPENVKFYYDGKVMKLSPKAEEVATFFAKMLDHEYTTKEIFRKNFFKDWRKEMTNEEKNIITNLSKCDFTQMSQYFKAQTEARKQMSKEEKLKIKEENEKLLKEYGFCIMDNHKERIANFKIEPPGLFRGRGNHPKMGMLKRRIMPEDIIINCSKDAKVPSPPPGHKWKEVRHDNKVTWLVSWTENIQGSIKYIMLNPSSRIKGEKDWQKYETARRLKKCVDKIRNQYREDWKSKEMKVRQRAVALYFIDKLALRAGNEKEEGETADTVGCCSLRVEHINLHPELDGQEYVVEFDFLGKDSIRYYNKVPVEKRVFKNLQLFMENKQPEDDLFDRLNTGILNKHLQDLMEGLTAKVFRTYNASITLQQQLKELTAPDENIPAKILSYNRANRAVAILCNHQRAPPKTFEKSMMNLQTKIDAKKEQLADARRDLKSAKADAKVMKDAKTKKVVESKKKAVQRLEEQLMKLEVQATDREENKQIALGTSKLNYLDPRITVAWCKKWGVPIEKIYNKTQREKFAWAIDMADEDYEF
Experiment: Test A. Topoisomerase I Cleavage Assay
Assay type: biochemical
Settings: concentration relative to compound 5 producing the same cleavage on plasmid DNA in the presence of human topoisomerase I
Method: Test A. Topoisomerase I Cleavage Assay.
Representative compounds of the invention were evaluated in a cleavage assay using recombinant topoisomerases I. This assay was preformed as described by B. Gatto et al. Cancer Res., 1996, 56, 2795-2800. Human topoisomerase I was isolated as a recombinant fusion protein using a T7 expression system. Plasmid YEpG was purified by the alkali lysis method followed by phenol deproteination and CsCl/ethidium isopycnic centrifiigation as described by Maniatis, T.; Fritsch, E. F.; Sambrook, J. Molecular Cloning, a Laboratory Manual; Cold Spring Harbor Laboratory: Cold Spring Harbor, N.Y. 1982; pp 149-185. The end-labeling of the plasmid was accomplished by digestion with a restriction enzyme followed by end-filling with Klenow polymerase as previously described by Liu, L. F.; Rowe, T. C.; Yang, L.; Tewey, K. M.; Chen, G. L. “Cleavage of DNA by mammalian topoisomerase II,” J. Biol. Chem. 1983, 258, 15365. […] Topoisomerase I cleavage values are reported as REC, Relative Effective Concentration (i.e., concentrations relative to compound 5, whose value is arbitrarily assumed as 1) that is able to produce the same cleavage on the plasmid DNA in the presence of human topoisomerase I.

## FC(F)(F)c1nc2cc(-c3nc4cc(-c5nc6cc(-c7ccccc7)ccc6[nH]5)ccc4[nH]3)ccc2[nH]1 [Compound 5, 5-Phenyl-2-[2′(2″-trifluoromethylbenzimidazol-5″yl)benzimidazol-5′-yl]benzimidazole]
  Topoisomerase I cleavage, REC (Relative Effective Concentration): 1
